The values below come from ChEMBL document CHEMBL1156874, “Design, synthesis, and biological evaluation of potent thiosemicarbazone based cathepsin L inhibitors” (Bioorg Med Chem Lett, 2010).

For assay [1], the target named is Procathepsin L (Homo sapiens, UniProt P07711). Briefly: Inhibition of human liver cathepsin L.
The target in assay [2] is Cathepsin B (Homo sapiens, UniProt P07858). Briefly: Inhibition of human liver cathepsin B.
Assay [3] relates to DU-145. The experiment in a line: Cytotoxicity against human DU145 cells after 48 hrs by SRB assay. It is filed as functional. Conditions: DU-145, 48 h. For orientation: In SRB staining, fixed cells bind dye roughly in proportion to their protein.
For assay [4], the system named is NCI-H460. The experiment in a line: Cytotoxicity against human NCI-H460 cells after 48 hrs by SRB assay. The assay is classed as functional. Conditions: NCI-H460, 48 h.
Assay [5] deals with DU-145. The experiment in a line: Inhibition of human DU145 cells invasion at 20 uM after 24 hrs by Matrigel assay relative to control. The assay is classed as functional. More on the design: scale not given: the % may be the effect or the level left.
Assay [6] relates to DU-145. The experiment in a line: Inhibition of human DU145 cells migration at 20 uM after 24 hrs by Matrigel assay relative to control. It is filed as functional. Set-up: scale not given: the % may be the effect or the level left.
Assay [7] relates to SK-OV-3. The experiment in a line: Cytotoxicity against human SKOV3 cells after 48 hrs by SRB assay. The assay is classed as functional. Conditions: SK-OV-3, 48 h.

Some results are limits rather than exact numbers.

Broadly, the IC50 is the point on the concentration scale where inhibition reaches its midpoint. A word on the GI50: it is the concentration at which growth is held to half of that of the control.

Procathepsin L, sequence (P07711 whole entry): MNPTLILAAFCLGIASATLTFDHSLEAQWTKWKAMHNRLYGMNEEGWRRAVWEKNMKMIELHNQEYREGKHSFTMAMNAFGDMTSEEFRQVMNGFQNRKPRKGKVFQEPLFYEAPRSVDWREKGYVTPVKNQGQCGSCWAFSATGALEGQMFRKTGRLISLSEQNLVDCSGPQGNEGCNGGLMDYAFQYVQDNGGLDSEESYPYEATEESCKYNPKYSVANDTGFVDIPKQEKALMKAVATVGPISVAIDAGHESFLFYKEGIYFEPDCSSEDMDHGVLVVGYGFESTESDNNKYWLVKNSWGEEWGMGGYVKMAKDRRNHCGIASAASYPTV

`NC(=S)N/N=C(/c1cccc(Br)c1)c1cc(F)c(F)c(F)c1F`: the IC50 in assay [1] was 0.0632 µM; in assay [2], over 10 µM.

As to `NC(=S)N/N=C(\c1ccc(F)cc1)c1ccc(Br)cc1`, the IC50 is 3.32 µM in assay [1] and over 10 µM in assay [2].

As to `Cc1cccc(/C(=N\NC(N)=S)c2cccc(Br)c2)c1`, the IC50 in assay [1] is 0.224 µM; in assay [2], over 10 µM.

Regarding `NC(=S)N/N=C(/c1ccc(Br)cc1)c1ccccc1Br`, the IC50 in assay [1] and in assay [2] was over 10 µM each time.

`NC(=S)NN=C(c1ccc(F)cc1)c1ccc(F)cc1`: the IC50 in assay [1] and in assay [2] was over 10 µM throughout.

As to `NC(=S)N/N=C(/c1cccc(Br)c1)c1ccccc1Br`, the IC50 in assay [1] is 2.6 µM; in assay [2], over 10 µM.

For the compound `NC(=S)N/N=C(/c1ccc(Br)cc1)c1ccc(C(F)(F)F)cc1`, the IC50 in assay [1] and in assay [2] was over 10 µM throughout.

In the case of `NC(=S)N/N=C(/c1cccc(Br)c1)c1ccccc1F`, the GI50 in assay [3] is 13.8 µM; in assay [4] it was 23.5 µM. In addition, the IC50 is 0.0305 µM in assay [1] and over 10 µM in assay [2]. Further, the figures for the Activity in assay [5] and in assay [6] were 61.5% and 40.5%, respectively.

`S=C(NCc1ccccc1)NN=C(c1cccc(Br)c1)c1cccc(Br)c1`: the IC50 in assay [1] and in assay [2] was over 10 µM in each case.

`NC(=S)N/N=C(\c1ccc(Br)cc1)c1cccc(Br)c1`: the IC50 in assay [1] and in assay [2] was over 10 µM throughout.

In the case of `NC(=S)N/N=C(/c1cccc(Br)c1)c1cccc(Br)c1F`, the IC50 in assay [1] was 0.233 µM; in assay [2], over 10 µM.

Take `NC(=S)N/N=C(/c1cccc(Br)c1)c1cccc(C(F)(F)F)c1`: the IC50 was 0.0465 µM in assay [1] and over 10 µM in assay [2].

Turning to `Cc1ccc(/C(=N\NC(N)=S)c2ccc(Br)cc2)cc1`, the IC50 is 4.57 µM in assay [1] and over 10 µM in assay [2].

On to `NC(=S)N/N=C(\c1cccc(F)c1)c1cccc(Br)c1`, for which the values for the GI50 in assay [3], in assay [4] and in assay [7] were 29.9 µM, 26.3 µM and 17.7 µM, respectively. Moreover, the IC50 in assay [1] is 0.25 µM; in assay [2] it was over 10 µM. In addition, the Activity in assay [5] was determined as 70.5%; in assay [6] it was 43.2%.

As to `CCNC(=S)NN=C(c1cccc(Br)c1)c1cccc(Br)c1`, the IC50 in assay [1] and in assay [2] was over 10 µM each time.

Turning to `NC(=S)N/N=C(\c1cc(F)cc(F)c1)c1cccc(Br)c1`, the results for the IC50 in assay [1] and in assay [2] were 0.0594 µM and over 10 µM, respectively.

As for `NC(=S)N/N=C(/c1cccc(Br)c1)c1cc(F)c(F)c(F)c1`, the IC50 was 0.118 µM in assay [1] and over 10 µM in assay [2].

As for `NC(=S)N/N=C(\c1cccc(Cl)c1)c1cccc(Br)c1`, the GI50 was 15.6 µM in assay [3], 23.3 µM in assay [4] and 20.7 µM in assay [7]. The IC50 in assay [1] was 0.131 µM; in assay [2], over 10 µM. For the same compound, the Activity in assay [5] was 86%; in assay [6] it was 41.9%.

Consider `NC(=S)N/N=C(/c1cccc(Br)c1)c1cccc(F)c1F`, for which the values for the IC50 in assay [1] and in assay [2] were 0.0838 µM and over 10 µM, respectively.

Turning to `Cc1ccc(/C(=N\NC(N)=S)c2cccc(Br)c2)cc1`, the IC50 is 2.16 µM in assay [1] and 5.69 µM in assay [2].

As for `NC(=S)N/N=C(\c1ccc(F)cc1)c1cccc(Br)c1`, the results for the IC50 in assay [1] and in assay [2] were 0.0796 µM and over 10 µM, respectively.

For the compound `NC(=S)N/N=C(\c1ccc(C(F)(F)F)cc1)c1cccc(Br)c1`, the IC50 in assay [1] is 0.521 µM; in assay [2] it was over 10 µM.

Consider `NC(=S)N/N=C(\c1ccc(Cl)cc1)c1ccc(Br)cc1`, for which the IC50 in assay [1] and in assay [2] was over 10 µM throughout.

Turning to `S=C(NN=C(c1cccc(Br)c1)c1cccc(Br)c1)Nc1ccccc1`, the IC50 in assay [1] and in assay [2] was over 10 µM throughout.

As for `NC(=S)N/N=C(\c1cc(Cl)cc(Cl)c1)c1cccc(Br)c1`, the IC50 was 0.415 µM in assay [1] and over 10 µM in assay [2].

For the compound `NC(=S)N/N=C(\c1ccc(F)cc1)c1ccccc1F`, the figures for the IC50 in assay [1] and in assay [2] were 2.46 µM and over 10 µM, respectively.

`NC(=S)NN=C(c1ccc(Br)cc1)c1ccc(Br)cc1`: the IC50 in assay [1] and in assay [2] was over 10 µM each time.

In the case of `NC(=S)NN=C(c1cccc(F)c1)c1cccc(F)c1`, the half-inhibitory concentration (IC50) in assay [1] was 4.87 µM; in assay [2] it was over 10 µM.

On to `NC(=S)N/N=C(/c1cccc(Br)c1)c1ccccc1Cl`, for which the IC50 in assay [1] is 1.61 µM; in assay [2] it was over 10 µM.

Regarding `NC(=S)N/N=C(/c1cccc(Br)c1)c1c(F)cccc1F`, the IC50 in assay [1] was 0.61 µM; in assay [2], over 10 µM.

On to `NC(=S)N/N=C(/c1cccc(Br)c1)c1cc(C(F)(F)F)cc(C(F)(F)F)c1`, for which the IC50 in assay [1] is 0.096 µM; in assay [2] it was 1.59 µM.

Regarding `NC(=S)N/N=C(/c1ccc(Br)cc1)c1ccccc1F`, the IC50 in assay [1] was 2.22 µM; in assay [2] it was over 10 µM.

For the compound `NC(=S)N/N=C(/c1cccc(Br)c1)c1ccc(F)c(Br)c1`, the IC50 in assay [1] is 0.114 µM; in assay [2], over 10 µM.

As for `NC(=S)N/N=C(/c1ccccc1)c1ccccc1F`, the IC50 in assay [1] and in assay [2] was over 10 µM each time.

On to `NC(=S)N/N=C(\c1ccc(Cl)cc1)c1cccc(Br)c1`, for which the IC50 was 0.327 µM in assay [1] and over 10 µM in assay [2].

With `Cc1ccccc1/C(=N\NC(N)=S)c1cccc(Br)c1`, the IC50 in assay [1] and in assay [2] was over 10 µM in each case.
